# Activity calls are given as the source filed them. No rule for the calls is given here.
# Tested on: M. tuberculosis BioA-TetON underexpression strain, growth inhibition
# Assay: antitubercular growth inhibition, bioa underexpression strain, cell based, dry powder, single point (AID 743352)
row,Compound,IC90
1,COc1ccccc1C(=O)N1CCN(c2ccc(C(C)=O)cc2)CC1,> 50 µM (inactive)
2,COc1ccc(NC(=O)N2CC[C@@H]3[C@@H](CO)N(C)c4ccc(-c5ccc(F)cc5)cc4[C@@H]32)cc1,> 50 µM (inactive)
3,COc1ccccc1NC(=O)N1CC[C@@H]2[C@@H](CO)N(C)c3ccc(-c4cccc(F)c4)cc3[C@@H]21,> 50 µM (inactive)
4,CN1c2ccc(-c3cccc(F)c3)cc2[C@H]2[C@H](CCN2C(=O)Cc2cccnc2)[C@H]1CO,> 50 µM (inactive)
5,COC(=O)CCCCCCC(=O)N1CC[C@@H]2[C@@H](CO)N(C)c3ccc(-c4cccc(F)c4)cc3[C@@H]21,> 50 µM (inactive)
6,CNC(=O)c1ccc(N2CCN(C(=O)c3ccc4c(c3)OCO4)CC2)cc1,> 50 µM (inactive)
7,CN1c2ccc(-c3ccc(F)cc3)cc2[C@H]2[C@H](CCN2C(=O)Nc2ccc(F)cc2)[C@H]1CO,> 50 µM (inactive)
8,CC(C)NC(=O)N1CC[C@@H]2[C@@H](CO)N(C)c3ccc(-c4ccc(F)cc4)cc3[C@@H]21,> 50 µM (inactive)
9,CN1c2ccc(-c3cccc(F)c3)cc2[C@H]2[C@H](CCN2C(=O)c2ccc3c(c2)OCO3)[C@@H]1CO,> 50 µM (inactive)
10,CC(=O)c1ccc(N2CCN(C(=O)c3ccccc3F)CC2)cc1,> 50 µM (inactive)
11,COCC(=O)N1CC[C@@H]2[C@@H](CO)N(C)c3ccc(-c4cccc(F)c4)cc3[C@@H]21,> 50 µM (inactive)
12,COc1cccc(NC(=O)N2CC[C@@H]3[C@@H](CO)N(C)c4ccc(-c5cccc(F)c5)cc4[C@@H]32)c1,> 50 µM (inactive)
13,CN1c2ccc(-c3ccc(F)cc3)cc2[C@H]2[C@H](CCN2C(=O)Cc2ccccn2)[C@H]1CO,> 50 µM (inactive)
14,CNS(=O)(=O)c1ccc(N2CCN(C(=O)c3ccc4c(c3)OCO4)CC2)cc1,> 50 µM (inactive)
15,CN1c2ccc(-c3cccc(F)c3)cc2[C@H]2[C@H](CCN2C(=O)CCCCCCC(=O)O)[C@H]1CO,> 50 µM (inactive)
16,CN1c2ccc(-c3ccc(F)cc3)cc2[C@H]2[C@H](CCN2C(=O)Cc2cccnc2)[C@H]1CO,> 50 µM (inactive)
17,CC(=O)c1ccc(N2CC3(CN(C(=O)c4ccc5c(c4)OCO5)C3)C2)cc1,> 50 µM (inactive)

row,Compound,IC90
1,CC(=O)c1ccc(N2CCN(C(=O)c3ccc4c(c3)OCO4)[C@H](C)C2)cc1,17.3 µM
2,CN(C)C(=O)c1ccc(N2CCN(C(=O)c3ccc4c(c3)OCO4)CC2)cc1,> 50 µM (inactive)
3,COc1ccc(NC(=O)N2CC[C@@H]3[C@@H](CO)N(C)c4ccc(-c5cccc(F)c5)cc4[C@@H]32)cc1,> 50 µM (inactive)
4,CC(C)NC(=O)N1CC[C@@H]2[C@@H](CO)N(C)c3ccc(-c4cccc(F)c4)cc3[C@@H]21,> 50 µM (inactive)
5,CN1c2ccc(-c3cccc(F)c3)cc2[C@H]2[C@H](CCN2C(=O)Cc2ccccc2)[C@H]1CO,> 50 µM (inactive)
6,CN1c2ccc(-c3cccc(F)c3)cc2[C@@H]2[C@@H](CCN2C(=O)c2ccc3c(c2)OCO3)[C@H]1CO,> 50 µM (inactive)
7,CC(=O)c1ccc(N2CCN(C(=O)c3ccc4c(c3)OCO4)CC2)cc1,22.2 µM
8,CN1c2ccc(-c3cccc(F)c3)cc2[C@H]2[C@H](CCN2C(=O)CCCCCCN)[C@H]1CO,> 50 µM (inactive)
9,CN1c2ccc(-c3cccc(F)c3)cc2[C@H]2[C@H](CCN2C(=O)Nc2ccccc2F)[C@H]1CO,> 50 µM (inactive)
10,CC(=O)c1ccc(N2CCN(C(=O)c3ccccc3Cl)CC2)cc1,> 50 µM (inactive)
11,CCC(=O)N1CC[C@@H]2[C@@H](CO)N(C)c3ccc(-c4ccc(F)cc4)cc3[C@@H]21,> 50 µM (inactive)
12,CCCCCCCC(=O)N1CC[C@@H]2[C@@H](CO)N(C)c3ccc(-c4cccc(F)c4)cc3[C@@H]21,> 50 µM (inactive)
13,CN1c2ccc(-c3ccc(F)cc3)cc2[C@H]2[C@H](CCN2C(=O)Nc2cc(F)ccc2F)[C@H]1CO,> 50 µM (inactive)
14,COc1ccccc1NC(=O)N1CC[C@@H]2[C@@H](CO)N(C)c3ccc(-c4ccc(F)cc4)cc3[C@@H]21,> 50 µM (inactive)
15,CN1c2ccc(-c3cccc(F)c3)cc2[C@@H]2[C@@H](CCN2C(=O)c2ccc3c(c2)OCO3)[C@@H]1CO,> 50 µM (inactive)
16,CC(=O)c1ccc(NCCNC(=O)c2ccc3c(c2)OCO3)cc1,> 50 µM (inactive)
17,CCCNC(=O)N1CC[C@@H]2[C@@H](CO)N(C)c3ccc(-c4ccc(F)cc4)cc3[C@@H]21,> 50 µM (inactive)

# From PubChem BioAssay AID743352 (Broad Institute, 2014)
